From publication PMC11078990, “Identification and characterization of small molecule inhibitors of the LINE-1 retrotransposon endonuclease” (Nature Communications, 2024)
Where “and” joins values, the source holds several entries; their conditions need not be identical. Equal entries are not always repeated. Where two headings read alike, the source gives them in different places.

What was measured:
[1] = tested on: HeLa Tet-On cells; settings: human
[2] = target: L1 EN (LINE-1 retrotransposon endonuclease domain) (Homo sapiens, UniProt O00370, N5T); experiment: Fluorescent oligonucleotide EN nicking activity assay; format: biochemical
[3] = target: T1, APE1 (Homo sapiens, UniProt P27695); experiment: APE1 fluorescent oligonucleotide activity assay (abasic site substrate); format: biochemical; settings: for activity at 25 µM: read-out: APE1 activity (%)
T1 construct: purchased New England Biolabs (NEB) M0282S

[4] = tested on: DNA fragmentation (comet tail length) in HeLa Tet-On cells expressing EN domain; experiment: Neutral comet assay, EN domain-only constructs; format: cell-based, human
[5] = tested on: substrate oligonucleotide used in the EN activity assay; format: binding; parameters: key to Binding Detected? (Y/N): Binding Detected? (Y/N); Binding Detected? (Y/N)
[6] = tested on: L1 retrotransposition; experiment: HeLa dual-luciferase L1 retrotransposition assay; format: cell-based, human
[7] = read-out: EN activity, percent of no inhibitor control

L1 EN (LINE-1 retrotransposon endonuclease domain), sequence (O00370 1-239 N5T): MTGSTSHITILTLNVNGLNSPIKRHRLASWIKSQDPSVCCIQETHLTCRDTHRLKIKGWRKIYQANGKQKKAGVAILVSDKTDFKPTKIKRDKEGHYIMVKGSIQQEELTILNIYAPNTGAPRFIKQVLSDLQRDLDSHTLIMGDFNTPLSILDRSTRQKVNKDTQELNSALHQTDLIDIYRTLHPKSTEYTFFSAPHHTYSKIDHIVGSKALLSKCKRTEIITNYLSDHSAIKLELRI

O=C(NCCCCCCNC(=O)Nc1cccc([N+](=O)[O-])c1)Nc1cccc([N+](=O)[O-])c1 [AD32] was tested, and the “PrestoBlue (viability), average” value [1] was 14.98, the “EN activity, percent of no inhibitor control” value ([2]; 1 µM) was 89.1778% and 95.2749% and the “EN activity, percent of no inhibitor control” value ([2]; 5 µM) was 106.426% and 105.894%. The “EN activity, percent of no inhibitor control” value ([2]; 20 µM) was 107.498% and 97.7763% and 80.1287%, the “EN activity, percent of no inhibitor control” value ([2]; 50 µM) was 115.028% and 130.021% and 99.6138% and the “EN activity, percent of no inhibitor control” value ([2]; 100 µM) was 108.576% and 99.1955%. For the same compound, the “EN activity, percent of no inhibitor control” value ([2]; 250 µM) was 76.4578% and 67.7464%, the “EN activity, percent of no inhibitor control” value ([2]; 500 µM) was 42.369% and 27.0684% and the “EN activity, percent of no inhibitor control” value ([2]; 750 µM) was 20.3358% and 21.9713%. For the same compound, the “EN activity, percent of no inhibitor control” value ([2]; 1000 µM) was 5.092% and 3.166% and 2.499%, the remaining activity at 1 µM [2, 7] was 93.7% and the remaining activity at 5 µM [2, 7] was 103%. The remaining activity at 100 µM [2, 7] was 106%, the remaining activity at 250 µM [2, 7] was 71.9% and the remaining activity at 500 µM [2, 7] was 46.5%. For the same compound, the remaining activity at 750 µM [2, 7] was 20.5%, the “APE1 percent activity, Replicate 1” value [3] was 105.807% and the “APE1 percent activity, Replicate 2” value [3] was 106.706%. For the same compound, the “APE1 percent activity, Replicate 3” value [3] was 111.118%, the “APE1 percent activity, average” value [3] was 107.877% and the “Percent APE1 activity, average” value [3] was 120.4%. The “Percent APE1 activity, replicates” value [3] was 115.512% and 123.038% and 122.705%, the activity at 25 µM [3] was 108 ± 2.8% and the “Nuclei comet tail length, average (WT = 1)” value [4] was 0.6103. For the same compound, the “Binding Detected? (Y/N)” value [5] was “N”, the “Effect on L1 retrotransposition” value [6] was “some activity in the retrotransposition assay” and the “Luciferase (retrotransposition), average” value [6] was 1.01. The “Luciferase (retrotransposition), replicates” value [6] was 1.2931 and 0.8621 and 0.8883 and 0.9964.
For Nn1cnn2c(SCC(=O)Nc3nnc(SCC(=O)Nc4ccc(S(N)(=O)=O)cc4)s3)nnc12 [AD29], the “PrestoBlue (viability), average” value ([1]; 48 h, 50 μM) was 15.21, the “EN activity, percent of no inhibitor control” value ([2]; [Inhibitor] 0.5 μM, technical replicates 1-3, Fig. 2b source data, 0.5 µM) was 96.7352% and 105.013% and the remaining activity at 0.5 µM ([2]; [Inhibitor] 0.5 μM, technical replicates 1-3, Fig. 2b source data, read-out: EN activity, percent of no inhibitor control) was 97.3%. For the same compound, the “EN activity, percent of no inhibitor control” value ([2]; [Inhibitor] 5 μM, technical replicates 1-3, Fig. 2b source data, 5 µM) was 89.8647% and 119.947% and 95.1949%, the “EN activity, percent of no inhibitor control” value ([2]; [Inhibitor] 10 μM, technical replicates 1-3, Fig. 2b source data, 10 µM) was 90.2289% and 93.2039% and the remaining activity at 10 µM ([2]; [Inhibitor] 10 μM, technical replicates 1-3, Fig. 2b source data, read-out: EN activity, percent of no inhibitor control) was 89.2%. For the same compound, the “EN activity, percent of no inhibitor control” value ([2]; [Inhibitor] 25 μM, technical replicates 1-3, Fig. 2b source data, 25 µM) was 63.7726% and 70.2623%, the remaining activity at 25 µM ([2]; [Inhibitor] 25 μM, technical replicates 1-3, Fig. 2b source data, read-out: EN activity, percent of no inhibitor control) was 64.2% and the “EN activity, percent of no inhibitor control” value ([2]; [Inhibitor] 50 μM, technical replicates 1-3, Fig. 2b source data, 50 µM) was 34.0986% and 27.5313%. For the same compound, the remaining activity at 50 µM ([2]; [Inhibitor] 50 μM, technical replicates 1-3, Fig. 2b source data, read-out: EN activity, percent of no inhibitor control) was 24.6%, the “EN activity, percent of no inhibitor control” value ([2]; [Inhibitor] 100 μM, technical replicates 1-3, Fig. 2b source data, 100 µM) was 8.595% and 8.689% and the remaining activity at 100 µM ([2]; [Inhibitor] 100 μM, technical replicates 1-3, Fig. 2b source data, read-out: EN activity, percent of no inhibitor control) was 5.53%. For the same compound, the “EN activity, percent of no inhibitor control” value ([2]; [Inhibitor] 250 μM, technical replicates 1-3, Fig. 2b source data, 250 µM) was 1.937% and 2.743%, the remaining activity at 250 µM ([2]; [Inhibitor] 250 μM, technical replicates 1-3, Fig. 2b source data, read-out: EN activity, percent of no inhibitor control) was 2.22% and the “EN activity, percent of no inhibitor control” value ([2]; [Inhibitor] 500 μM, technical replicates 1-3, Fig. 2b source data, 500 µM) was 1.591% and 1.804% and 0.7296%. For the same compound, the “APE1 percent activity, Replicate 1” value ([3]; compound at 25 μM, Replicate 1) was 83.829%, the “APE1 percent activity, Replicate 2” value ([3]; compound at 25 μM, Replicate 2) was 79.0708% and the “APE1 percent activity, Replicate 3” value ([3]; compound at 25 μM, Replicate 3) was 80.6497%. For the same compound, the “APE1 percent activity, average” value ([3]; compound at 25 μM, average of 3 replicates) was 81.1831%, the activity at 25 µM ([3]; inhibitors at 25 μM, relative to 0 μM inhibitor control, mean ± s.d., 3 independent experiments) was 81.2 ± 2.4% and the “Nuclei comet tail length, average (WT = 1)” value ([4]; 50 μM inhibitor, EN domain-only construct, neutral comet assay, normalised to WT) was 0.4772. For the same compound, the “Binding Detected? (Y/N)” value [5] was “N”, the “Luciferase (retrotransposition), average” value ([6]; Figure 4a Graph 4, 50μM, 0μM average 3.426) was 2.638 and the “Luciferase (retrotransposition), replicates” value ([6]; Figure 4a Graph 4, 50μM, Replicates 1-4, 0μM average 3.426) was 2.47 and 2.591 and 2.484 and 3.007.
